Reference: publication PMC4076215, “Nickel(II) Complex of Polyhydroxybenzaldehyde N4-Thiosemicarbazone Exhibits Anti-Inflammatory Activity by Inhibiting NF-κB Transactivation” (PLoS ONE, 2014)
Entries after “also recorded” stand apart in the source; their conditions may differ.

Experiments:
[1] = system: NF-κB p65 nuclear translocation; assay: NF-κB p65 immunofluorescence staining, TNFα-stimulated HeLa S3; format: cell-based, human; conditions: HeLa S3, 6.25 µg/ml pretreatment 4 h
Method: NF-κB Activation Kits (Thermo Scientific) were used as previously described. Cells were pretreated with compounds for 4 h before being stimulated with lipopolysaccharide (LPS) ortumour necrosis factor α (TNFα) for 1 h. Cells were then fixed and permeabilized before probing with NF-κB p65 antibody for 1 h. Staining solution (containing DyLight 488 Goat Anti-Rabbit and Hoechst dye) was then added and incubated for 1 h. The plate with stained cells was evaluated using a Cellomics ArrayScan HCS Reader (Cellomics, PA, USA). Data were captured, extracted and analyzed with ArrayScan II Data Acquisition and Data Viewer version 3.0 (Cellomics).
To examine whether complex 5 blocks the activation of NF-κB by another agonist, similar experiments were performed on HeLa S3 cells induced with TNFα. Similar to LPS-treated RAW264.7 cells, TNFα-induced translocation of NF-κB p65 in HeLa S3 cells (Figure 5A). […] TNF stimulation induced a rapid phosphorylation of IκBα in DMSO treated cells (within 5 minutes).
Figure 5 Complex 5 blocks TNFα-induced NF-κB nuclear translocation. Complex 5 inhibits TNFα -induced NF-B nuclear translocation. (A) NF-κB activation assay on TNFα treated HeLa S3 cells. Staining of Hoechst (nucleus) and NF-κB in HeLa S3 cells. […] Western blot signal intensities were quantified using ImageJ software. […]

[2] = Acute toxicity test in mice; format: in vivo, C57BL/6 mice
Description: Next, we examined the anti-inflammatory effects of complex 5 in a carrageenan-induced paw edema mouse model. We first tested the acute toxicity effect of complex 5 in C57BL/6 mice.

[3] = system: carrageenan-induced paw edema; assay: Carrageenan-induced paw edema mouse model; format: in vivo, C57BL/6 mice; conditions: for Paw size: 1 h after carrageenan, control 7.3±0.8 mm
Method: Male C57BL/6 mice at age 8–12 weeks old were from Jackson Laboratories, USA. Mice were administrated intraperitoneally (i.p.) with two different doses of complex 5 (2.5 mg/kg and 5 mg/kg). Negative control groups were i.p. injected with 200 µl of vehicle (50% v/v ethanol). A standard drug 2 mg/kg dexamethasone (Sigma) was included in the study. After 1 h, paw edema was induced by injecting 50 µl of 1% carrageenan (Sigma) through the plantar tissue at the right hind paw of each mouse. The thickness of right paw of each mouse was measured at 1, 3 and 5 h after carrageenan was administered. Four animals per group were tested (n = 4). Quantification of right hind paw thickness were analyzed for statistical significance using Student's t-test. Animals were housed in individually ventilated cages in specific pathogen free facility, Animal Experimental Unit, University of Malaya. All efforts were made to minimize animal suffering and the number of animals used. At the end of the experiment, mice were euthanized by CO2 asphyxiation. Animal work was approved by the Faculty of Medicine Animal Care and Use Committee (FOMIACUC) at University of Malaya and reported according to ARRIVE guidelines.
To test the in vivo inhibitory effect of complex 5 on inflammation, we administrated two doses of complex 5 (2.5 mg/kg and 5.0 mg/kg) into C57BL/6 wild type mice through i.p. injection. For a positive control, we performed i.p. injection of 2.0 mg/kg dexamethasone into the mice. After 1 h, paw edema in the mice was induced by injecting 1% carrageenan to the right hind paw. The paw sizes were measured at 1, 3 and 5 h after edema induction. The edema formation at the mice paw was due to inflammatory response causing the accumulation of histamine, serotonin, prostaglandin and other secreted inflammatory mediators.
Male C57BL/6 mice at age of 8-12 weeks old were non-injected or injected i.p. with 2.5 mg/kg or 5.0 mg/kg complex 5, whereas for positive controls, mice were injected i.p. with 2.0 mg/kg dexamethasone. After 1 h, acute inflammation was induced in the right hind paw of each mice by injecting 50 µl of carrageenan. The size of the paw were measured after (A) 1 h or, (B) 1, 3 and 5 h post carrageenan injection. Shown were mean ±SD (n = 4). Statistical analysis was performed with Student's t-test.

[4] = Renal functional test (serum) after oral dosing; format: in vivo, C57BL/6 mice; conditions: after two weeks
Method: Renal functional test. C57BL/6 mice at age 8-12 weeks old were administrated orally with control PBS or
with various concentrations (125 mg/kg, 250 mg/kg and 500 mg/kg) of complex 5. n= 6 (3 male and 3
female mice)/group. After two weeks, sera were collected from the mice for renal functional test.

For `NC1=[S+][Ni-2]2([P+](c3ccccc3)(c3ccccc3)c3ccccc3)[O]c3c(O)cccc3C=[N+]2N1.[Cl-]` [complex 5, {2-[(2-Carbamothiolylhydrazin-1-ylidene-[kappa]2N1,S)methyl]-6-hydroxyphenolato-[kappa]O1}(triphenylphosphine-[kappa]P)nickel(II) chloride], the “Inhibition of TNFα-induced NF-κB nuclear translocation” value [1] was “significantly blocked; also recorded: sufficient to prevent”, the “Safety judged from renal and liver functional tests” value ([2]; 125 mg/kg or 250 mg/kg oral) was “safe for consumption” and the “Safety judged from renal and liver functional tests” value ([2]; 500 mg/kg oral) was “may be cytotoxic to the host”. For the same compound, the Acute toxicity observation ([2]; 14 day observation period) was “no overt abnormalities”, the Well tolerated dose ([2]; acute toxicity test) was “up to 250 mg/kg” and the Paw size ([3]; 2.5 mg/kg i.p.) was 5.8±0.4 mm. The Paw edema formation ([3]; 5.0 mg/kg i.p.) was “obvious reduction; also recorded: effectively reduced”, the Paw size ([3]; 5.0 mg/kg i.p.) was 5.0±0.2 mm and the “Paw edema compared to untreated mice” value ([3]; 3 and 5 h post carrageenan) was “further reduced”. The “Anion Gap” value ([4]; 125 mg/kg oral) was 24.80 mmol/L, the CO2 ([4]; 125 mg/kg oral) was 18.18 mmol/L and the Chlorine ([4]; 125 mg/kg oral) was 110.80 mmol/L. For the same compound, the Creatinine ([4]; 125 mg/kg oral) was less than 9 µmol/L, the Potassium ([4]; 125 mg/kg oral) was 6.68 ± 1.12 mmol/L and the Sodium ([4]; 125 mg/kg oral) was 147.00 mmol/L. The Urea ([4]; 125 mg/kg oral) was 10.72 mmol/L, the “Anion Gap” value ([4]; 250 mg/kg oral) was 26.67 mmol/L and the CO2 ([4]; 250 mg/kg oral) was 16.36 mmol/L. For the same compound, the Chlorine ([4]; 250 mg/kg oral) was 111.00 mmol/L, the Creatinine ([4]; 250 mg/kg oral) was less than 9 µmol/L and the Potassium ([4]; 250 mg/kg oral) was 6.50 ± 0.52 mmol/L. For the same compound, the Sodium ([4]; 250 mg/kg oral) was 147.50 mmol/L, the Urea ([4]; 250 mg/kg oral) was 9.96 mmol/L and the “Anion Gap” value ([4]; 500 mg/kg oral) was 27.00 mmol/L. The CO2 ([4]; 500 mg/kg oral) was 16.14 mmol/L, the Chlorine ([4]; 500 mg/kg oral) was 110.83 mmol/L and the Creatinine ([4]; 500 mg/kg oral) was less than 9 µmol/L. The Potassium ([4]; 500 mg/kg oral) was 5.83 ± 0.74 mmol/L, the Sodium ([4]; 500 mg/kg oral) was 148.33 mmol/L and the Urea ([4]; 500 mg/kg oral) was 9.56 mmol/L.
